From patent US12428422B2, “Purine derivatives as SIK-3 inhibitors” (RHIZEN PHARMACEUTICALS AG, priority 2020, dated 2025) come the findings set out here.

In one experiment the target is y isoform of PI3K (Homo sapiens, UniProt P48736). The experiment is described as follows: Activity against PI3K gamma isoform (printed "y" / "7"). The following applies: independently synthesized compound.
The test system of another experiment is mouse IL-10 mRNA. The experiment in a line: IL-10 mRNA expression in LPS-stimulated mouse bone marrow derived macrophages (real-time PCR). The following applies: LPS (1 μg/ml) stimulated mouse BMDM; 1 μM Compound M1 vs 1 μM dasatinib (FIG. 2C). The class given is cell-based. As to the method: Assay 2: Evaluation of mRNA Expression Levels of IL-10, TNFα, and Arginase-1 in LPS-Stimulated (1 μg/ml) Mouse Bone Marrow Derived Macrophages (BMDM).
Mouse-Bone Marrow Cell Isolation
• Femur bones from healthy mice were collected taking all aseptic precautions. • Bones were severed proximal to each joint using sterile scissors. • A 10 ml syringe with 25-G needle was filled with cold sterile wash medium (DMEM/F12 medium+10% FBS (fetal bovine serum)+1% Penicillin-streptomycin). • The needle was inserted into bone marrow cavity of femur and the cavity was flushed with 2-5 mL of wash medium, until the bone cavity appeared white. • Wash medium was collected in a 50 mL tube and centrifuged at 500×g for 10 minutes at room temperature. • Cells were resuspended in DMEM/F12 medium and cell count was taken. […]
Fold change in the mRNA expression was calculated by 2^−ΔΔCt method and data was plotted using GraphPad Prism.

A further experiment relates to MDA-MB-231 cell lines. The experiment in a line: MTT cell growth inhibition, combination with taxol, MDA-MB-231. It is filed as cell-based. As to conditions: combined with taxol, 72 hrs. As to the method:
Assay 6: Combination of Compound M1 with Standard Agents in Different Cell Lines
Day 0 • The cells were pelleted and counted. • Cells were plated at desired density (100 μl/well) in complete media in a 96-well plate in triplicates. A column for Day “0” reading was also seeded. (18-20 hrs after initial plating and before addition of the inhibitors) • Plates were incubated at 37° C. and 5% CO2. Day 1 • 10 μl of MTT (5 mg/ml) were added to the column designated for Day “0”. It was mixed well and incubated at 37° C. and 5% CO2 for 3.5 h. Cells were pelleted down at 4000 rpm for 10 minutes. • Media was aspirated out and 150 μl of DMSO were added to the cells and mixed by pipetting to dissolve the crystals • The plate was read at A560 nm and A640 nm. Day 2 • A series of dilutions of the inhibitors were initially made in 100% DMSO and further diluted in growth medium. • Cells were treated with either single agent of DMSO, compound M1, taxol, and a combination of compound M1 and taxol (MDA-MB-231, MCF-7, ZR.75.1 and SK-OV-3). […] Crystals were dissolved by repeated pipetting. • The plate was read at A560 nm and A640 nm. […]
Reference absorbance values were subtracted from test absorbance values. Day 0 values were subtracted from final day absorbance values for determining cell growth. % Cell growth inhibitions were calculated.

Chain of y isoform of PI3K (P48736 whole entry, canonical isoform): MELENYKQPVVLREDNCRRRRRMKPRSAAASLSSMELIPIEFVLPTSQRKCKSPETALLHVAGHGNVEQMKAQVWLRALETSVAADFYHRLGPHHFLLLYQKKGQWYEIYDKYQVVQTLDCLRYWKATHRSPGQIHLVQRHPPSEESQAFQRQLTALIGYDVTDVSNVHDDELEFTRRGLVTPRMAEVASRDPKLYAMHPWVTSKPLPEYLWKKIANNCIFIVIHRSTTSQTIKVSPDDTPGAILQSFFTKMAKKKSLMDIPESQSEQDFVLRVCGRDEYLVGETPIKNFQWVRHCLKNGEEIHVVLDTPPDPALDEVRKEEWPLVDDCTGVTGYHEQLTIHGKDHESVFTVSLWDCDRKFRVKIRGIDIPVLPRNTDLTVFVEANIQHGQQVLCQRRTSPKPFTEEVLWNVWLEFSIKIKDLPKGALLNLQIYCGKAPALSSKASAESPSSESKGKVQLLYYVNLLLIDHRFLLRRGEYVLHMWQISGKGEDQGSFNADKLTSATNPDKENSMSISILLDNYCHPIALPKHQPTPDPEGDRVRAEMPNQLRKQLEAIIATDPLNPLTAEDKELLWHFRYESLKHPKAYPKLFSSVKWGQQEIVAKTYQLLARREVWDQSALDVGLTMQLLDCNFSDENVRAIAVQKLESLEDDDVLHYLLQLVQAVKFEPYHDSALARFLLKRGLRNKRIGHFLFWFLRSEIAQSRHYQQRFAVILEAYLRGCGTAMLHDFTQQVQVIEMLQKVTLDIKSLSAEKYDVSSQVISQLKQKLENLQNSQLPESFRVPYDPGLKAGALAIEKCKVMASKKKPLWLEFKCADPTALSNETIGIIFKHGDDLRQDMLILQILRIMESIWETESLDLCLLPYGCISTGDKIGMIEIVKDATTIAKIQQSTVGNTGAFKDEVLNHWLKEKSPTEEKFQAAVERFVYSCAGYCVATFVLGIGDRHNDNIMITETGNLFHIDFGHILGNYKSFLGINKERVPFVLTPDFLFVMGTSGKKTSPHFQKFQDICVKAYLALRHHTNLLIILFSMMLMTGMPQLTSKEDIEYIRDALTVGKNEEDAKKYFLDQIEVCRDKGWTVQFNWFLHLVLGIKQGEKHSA

Turning to `CC[C@H](Nc1ncnc2[nH]c(O)nc12)c1oc2ccccc2c(=O)c1-c1cccc(F)c1` [Compound M1, (S)-3-(3-fluorophenyl)-2-(1-((8-hydroxy-9H-purin-6-yl)amino)propyl)-4H-chromen-4-one], on y isoform of PI3K, the “activity against the y isoform of PI3K” value is “inactive”. In addition, the “mouse IL-10 mRNA expression, potency relative to dasatinib” value in the experiment with mouse IL-10 mRNA is “equally potent as dasatinib”. The “cell growth inhibition in combination” value with MDA-MB-231 cell lines is on record as “synergistic results”.
